Data reported in the CombiSolv-Exp solvation set (Vermeire and Green 2021).

Experiment: solvent given as SMILES

N
Details	solvation free energy, 298 K [kcal/mol]
in CC(C)=O	-2.02
in CC(C)CO	-2.54
in CC(C)O	-2.37
in CCC(C)=O	-1.94
in CCCCCCC	-1.27
in CCCCO	-2.4
in CCCO	-2.4
in CCO	-2.65
in CN1CCCC1=O	-1.85
in CO	-3.08
in ClC(Cl)Cl	-2.41
in Clc1ccccc1	-1.36
in O	-4.34

CCCCC(=O)O
Details	solvation free energy, 298 K [kcal/mol]
in O	-6.13

CCc1ccc(O)cc1
Details	solvation free energy, 298 K [kcal/mol]
in C=CCCCCCCC=C	-7.11
in CCCCCC	-6.53
in CCCCCCC	-6.47
in CCCCCCCC	-6.44
in Cc1ccc(C)cc1	-7.85
in Cc1cccc(C)c1	-7.83
in Cc1ccccc1C	-7.87
in O	-6.14

C#CCCCCCC
Details	solvation free energy, 298 K [kcal/mol]
in CN1CCCC1=O	-4.98
in CN(C)C=O	-4.99
in CS(C)=O	-4.42
in N#CCCCCC#N	-4.31
in NCCO	-3.17
in O	0.71

O=C(O)c1ccccc1O
Details	solvation free energy, 298 K [kcal/mol]
in C1CCOC1	-10.8
in C1COCCO1	-10.3
in CC(C)(C)O	-10.4
in CC(C)=O	-10.5
in CC(C)CCO	-10.1
in CC(C)CO	-10.2
in CC(C)O	-10.4
in CCC(C)=O	-10.4
in CCC(C)O	-10.3
in CCCC(C)O	-10.3
in CCCCCCCCO	-10.2
in CCCCCCO	-10.2
in CCCCCO	-10.2
in CCCCO	-10.3
in CCCCOC(C)=O	-10
in CCCCOCCCC	-9.58
in CCCO	-10.3
in CCO	-10.4
in CCOC(C)=O	-10.1
in CCOCC	-10.2
in CN(C)C=O	-10.9
in CO	-10.5
in COC(C)(C)C	-10.2
in COC(C)=O	-10.2
in Clc1ccccc1	-8.36
in NC=O	-9.97
in O	-7.35
in O=C1CCCCC1	-10.4

C=C1CCC2CC3C(C)CCC13C2(C)C (stereo not drawn)
Details	solvation free energy, 298 K [kcal/mol]
in O	0.83

O=C(O)C(O)c1ccccc1 (stereo not drawn)
Details	solvation free energy, 298 K [kcal/mol]
in C=CCCCCCCC=C	-9.41
in O	-13.7

CC(=O)OCCC(C)CCC=C(C)C (stereo not drawn)
Details	solvation free energy, 298 K [kcal/mol]
in O	-2.99

COc1cc(Cl)c(Cl)c(Cl)c1Cl
Details	solvation free energy, 298 K [kcal/mol]
in O	-2.55

CCCC
Details	solvation free energy, 298 K [kcal/mol]
in C1CCC2CCCCC2C1	-2.25
in C1COCCO1	-2.13
in CC1COC(=O)O1	-1.19
in CC#N	-1.49
in CC(=O)N(C)C	-1.75
in CC(C)(C)O	-2.07
in CC(C)=O	-2.13
in CC(C)CCO	-2.02
in CC(C)CO	-2.03
in CC(C)O	-2.03
in CC(CC(C)(C)C)CC(C)(C)CC(C)(C)C	-2.97
in CCC(C)(C)O	-2.16
in CCC(C)=O	-2.31
in CCC(C)CO	-2.03
in CCC(O)CC	-2.07
in CCCC(C)O	-2.03
in CCCCC	-2.61
in CCCCCC	-2.55
in CCCCCCC	-2.54
in CCCCCCCC	-2.49
in CCCCCCCCC	-2.43
in CCCCCCCCCC	-2.43
in CCCCCCCCCCCC	-2.32
in CCCCCCCCCCCCC	-2.31
in CCCCCCCCCCCCCC	-2.23
in CCCCCCCCCCCCCCC	-2.24
in CCCCCCCCCCCCCCCC	-2.21
in CCCCCCCCO	-2.09
in CCCCCCCO	-1.96
in CCCCCO	-2.03
in CCCCO	-1.87
in CCCCOCCCC	-2.44
in CCCO	-1.98
in CCO	-1.91
in CN1CCCC1=O	-1.56
in CN(C)C=O	-1.47
in CN(C)P(=O)(N(C)C)N(C)C	-1.85
in CO	-1.73
in COC(C)=O	-1.95
in COCCOCCO	-1.36
in COCCOCCOC	-1.89
in COCCOCCOCCOC	-1.64
in COCCOCCOCCOCCOC	-1.62
in CS(C)=O	-0.99
in Cc1ccc(C)cc1	-2.33
in Cc1cccc(C)c1	-2.34
in Cc1ccccc1C	-2.31
in ClC(Cl)(Cl)Cl	-2.67
in Clc1ccccc1	-2.32
in Ic1ccccc1	-2.05
in N#Cc1ccccc1	-1.93
in NC=O	-0.12
in Nc1ccccc1	-1.4
in O	2.07
in O=CN1CCOCC1	-0.91
in OC1CCCCC1	-1.8
in OCCCOCCCO	-1.24
in OCCO	-0.29
in OCc1ccccc1	-1.51
in c1ccccc1	-2.39

CCC#N
Details	solvation free energy, 298 K [kcal/mol]
in C=CCCCCCCCCCCCCCC	-2.85
in CC(=O)N(C)C	-4.99
in CC(C)CC(C)(C)C	-2.83
in CCCCCC	-3.04
in CCCCCCC	-2.86
in CCCCCCCC	-2.84
in CCCCCCCCCCCCCCCC	-2.64
in CCCCCCCCO	-3.65
in CCCCO	-4.01
in CCOC(C)=O	-4.68
in CN(C)C=O	-5.01
in CO	-4.92
in ClC(Cl)(Cl)Cl	-3.78
in ClCCCl	-4.98
in Clc1ccccc1	-4.45
in N#Cc1ccccc1	-4.82
in O	-3.84
in [2H]O[2H]	-3.79

NCCc1ccc(O)cc1
Details	solvation free energy, 298 K [kcal/mol]
in C=CCCCCCCC=C	-10
in O	-11.8

ICI
Details	solvation free energy, 298 K [kcal/mol]
in O	-2.49

Clc1cc(-c2ccccc2)c(Cl)c(Cl)c1Cl
Details	solvation free energy, 298 K [kcal/mol]
in CCCCCCCCO	-11.7
in O	-3.29

O
Details	solvation free energy, 298 K [kcal/mol]
in BrC(Br)Br	-1.76
in BrC(Br)C(Br)Br	-1.63
in BrCCBr	-1.98
in C1CCCCC1	-0.54
in C1COCCO1	-4.37
in C=CCCCCCCC=C	-1.19
in C=CCCCCCCCCCCCCCC	-0.63
in CC(C)=O	-4.34
in CC(C)C	-0.64
in CC(C)C(C)C	-0.56
in CC(C)C(C)C(C)C	-0.49
in CC(C)CC(C)(C)C	-0.52
in CC(C)CC(C)C	-0.51
in CC(C)CCC(C)(C)C	-0.49
in CCC	-0.66
in CCC(C)(C)C	-0.51
in CCC(C)=O	-4.02
in CCC(C)C	-0.56
in CCC(C)CC	-0.59
in CCCC(C)C	-0.55
in CCCC(C)CC	-0.47
in CCCCC	-0.64
in CCCCC(=O)CC	-3.3
in CCCCCC	-0.67
in CCCCCCC	-0.72
in CCCCCCCC	-0.73
in CCCCCCCCC	-0.53
in CCCCCCCCCC	-0.48
in CCCCCCCCCCC	-0.47
in CCCCCCCCCCCC	-0.44
in CCCCCCCCCCCCC	-0.4
in CCCCCCCCCCCCCCCC	-0.42
in CCCCCCCCCCO	-3.98
in CCCCCCCCO	-4.15
in CCCCO	-4.5
in CCCCOCCO	-4.6
in CCCO	-4.76
in CCCOCC(C)O	-4.29
in CCO	-5.05
in CN(C)C=O	-5.55
in CNC(C)=O	-5.8
in CNC=O	-5.28
in CO	-5.59
in ClC(Cl)(Cl)Cl	-1.15
in ClC(Cl)=C(Cl)Cl	-1.15
in NC=O	-5.67
in S=C=S	-1.01

CCCC(=O)CC(C)=O
Details	solvation free energy, 298 K [kcal/mol]
in O	-4.39

O=C(O)C=Cc1ccccc1
Details	solvation free energy, 298 K [kcal/mol]
in O	-8.38
